According to PubChem BioAssay (NCI):
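Method: 48-hour compound exposure of cells in 96-well plates, five concentrations, linear interpolation of endpoints. The concentration for full growth arrest is given as TGI.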

Test system: TK-10 renal
Experiment: NCI anticancer screen, dose series, 48 h

SMILES	TGI
CCN(CC)C(=O)c1cc(OC(C)C)ccc1-c1c(C)cc(OC(C)C)c(OC)c1OC	> 100 µM
Cc1cccc(NC(=O)C(=O)Cc2nc3ccccc3[nH]c2=O)c1C	> 100 µM
C=CCCCCCCCCC(=O)NS(=O)(=O)c1ccccc1	> 100 µM

Test system: U251 CNS
Experiment: NCI anticancer screen, dose series, 48 h

SMILES	TGI
NC1=NN(c2ccccc2)C(=O)C1C(=O)CCC(=O)Nc1cccc(C(F)(F)F)c1 (stereo unspecified)	> 100 µM
CC1=C2C(=O)O[C@@H](c3ccoc3)[C@]2(C)CCC1	> 100 µM
CC1=C(C)CC2(CCCCC2=O)S(=O)C1 (stereo unspecified)	> 100 µM
COC(=O)C1=NC(=S)NC(c2ccccc2)C1c1nc2ccccc2s1 (stereo unspecified)	> 100 µM
Cc1noc(C)c1CCCOC1COc2ccccc2OCCOCCOc2ccccc2OC1	> 100 µM
CCN(CC)C(=O)c1cc(OC(C)C)ccc1-c1c(C)cc(OC(C)C)c(OC)c1OC	> 100 µM
Cc1cccc(NC(=O)C(=O)Cc2nc3ccccc3[nH]c2=O)c1C	> 100 µM
C=CCCCCCCCCC(=O)NS(=O)(=O)c1ccccc1	> 100 µM

Test system: SNB-78 CNS
Experiment: NCI anticancer screen, dose series, 48 h

SMILES	TGI
NC1=NN(c2ccccc2)C(=O)C1C(=O)CCC(=O)Nc1cccc(C(F)(F)F)c1 (stereo unspecified)	> 100 µM
CC1=C2C(=O)O[C@@H](c3ccoc3)[C@]2(C)CCC1	> 100 µM
CC1=C(C)CC2(CCCCC2=O)S(=O)C1 (stereo unspecified)	> 100 µM
COC(=O)C1=NC(=S)NC(c2ccccc2)C1c1nc2ccccc2s1 (stereo unspecified)	> 100 µM
Cc1noc(C)c1CCCOC1COc2ccccc2OCCOCCOc2ccccc2OC1	> 100 µM
Cc1cccc(NC(=O)C(=O)Cc2nc3ccccc3[nH]c2=O)c1C	> 100 µM
C=CCCCCCCCCC(=O)NS(=O)(=O)c1ccccc1	> 100 µM

Test system: SN12C renal
Experiment: NCI anticancer screen, dose series, 48 h

SMILES	TGI
NC1=NN(c2ccccc2)C(=O)C1C(=O)CCC(=O)Nc1cccc(C(F)(F)F)c1 (stereo unspecified)	> 100 µM
CC1=C(C)CC2(CCCCC2=O)S(=O)C1 (stereo unspecified)	> 100 µM
COC(=O)C1=NC(=S)NC(c2ccccc2)C1c1nc2ccccc2s1 (stereo unspecified)	> 100 µM
Cc1noc(C)c1CCCOC1COc2ccccc2OCCOCCOc2ccccc2OC1	> 100 µM
CCN(CC)C(=O)c1cc(OC(C)C)ccc1-c1c(C)cc(OC(C)C)c(OC)c1OC	> 100 µM
Cc1cccc(NC(=O)C(=O)Cc2nc3ccccc3[nH]c2=O)c1C	> 100 µM
C=CCCCCCCCCC(=O)NS(=O)(=O)c1ccccc1	> 100 µM

Test system: UO-31 renal
Experiment: NCI anticancer screen, dose series, 48 h

SMILES	TGI
NC1=NN(c2ccccc2)C(=O)C1C(=O)CCC(=O)Nc1cccc(C(F)(F)F)c1 (stereo unspecified)	> 100 µM
CC1=C2C(=O)O[C@@H](c3ccoc3)[C@]2(C)CCC1	> 100 µM
CC1=C(C)CC2(CCCCC2=O)S(=O)C1 (stereo unspecified)	> 100 µM
COC(=O)C1=NC(=S)NC(c2ccccc2)C1c1nc2ccccc2s1 (stereo unspecified)	> 100 µM
Cc1noc(C)c1CCCOC1COc2ccccc2OCCOCCOc2ccccc2OC1	> 100 µM
CCN(CC)C(=O)c1cc(OC(C)C)ccc1-c1c(C)cc(OC(C)C)c(OC)c1OC	> 100 µM
Cc1cccc(NC(=O)C(=O)Cc2nc3ccccc3[nH]c2=O)c1C	> 100 µM
C=CCCCCCCCCC(=O)NS(=O)(=O)c1ccccc1	> 100 µM

Test system: MALME-3M melanoma
Experiment: NCI anticancer screen, dose series, 48 h

SMILES	TGI
NC1=NN(c2ccccc2)C(=O)C1C(=O)CCC(=O)Nc1cccc(C(F)(F)F)c1 (stereo unspecified)	> 100 µM
CC1=C2C(=O)O[C@@H](c3ccoc3)[C@]2(C)CCC1	> 100 µM
CC1=C(C)CC2(CCCCC2=O)S(=O)C1 (stereo unspecified)	> 100 µM
COC(=O)C1=NC(=S)NC(c2ccccc2)C1c1nc2ccccc2s1 (stereo unspecified)	> 100 µM
Cc1noc(C)c1CCCOC1COc2ccccc2OCCOCCOc2ccccc2OC1	> 100 µM
CCN(CC)C(=O)c1cc(OC(C)C)ccc1-c1c(C)cc(OC(C)C)c(OC)c1OC	> 100 µM
Cc1cccc(NC(=O)C(=O)Cc2nc3ccccc3[nH]c2=O)c1C	> 100 µM
C=CCCCCCCCCC(=O)NS(=O)(=O)c1ccccc1	> 100 µM

Test system: SK-MEL-2 melanoma
Experiment: NCI anticancer screen, dose series, 48 h

SMILES	TGI
NC1=NN(c2ccccc2)C(=O)C1C(=O)CCC(=O)Nc1cccc(C(F)(F)F)c1 (stereo unspecified)	> 100 µM
CC1=C2C(=O)O[C@@H](c3ccoc3)[C@]2(C)CCC1	> 100 µM
CC1=C(C)CC2(CCCCC2=O)S(=O)C1 (stereo unspecified)	> 100 µM
COC(=O)C1=NC(=S)NC(c2ccccc2)C1c1nc2ccccc2s1 (stereo unspecified)	> 100 µM
Cc1noc(C)c1CCCOC1COc2ccccc2OCCOCCOc2ccccc2OC1	> 100 µM
CCN(CC)C(=O)c1cc(OC(C)C)ccc1-c1c(C)cc(OC(C)C)c(OC)c1OC	> 100 µM
C=CCCCCCCCCC(=O)NS(=O)(=O)c1ccccc1	> 100 µM

Test system: CCRF-CEM leukemia
Experiment: NCI anticancer screen, dose series, 48 h

SMILES	TGI
NC1=NN(c2ccccc2)C(=O)C1C(=O)CCC(=O)Nc1cccc(C(F)(F)F)c1 (stereo unspecified)	> 100 µM
CC1=C2C(=O)O[C@@H](c3ccoc3)[C@]2(C)CCC1	> 100 µM
CC1=C(C)CC2(CCCCC2=O)S(=O)C1 (stereo unspecified)	> 100 µM
COC(=O)C1=NC(=S)NC(c2ccccc2)C1c1nc2ccccc2s1 (stereo unspecified)	> 100 µM
CCN(CC)C(=O)c1cc(OC(C)C)ccc1-c1c(C)cc(OC(C)C)c(OC)c1OC	> 100 µM
Cc1cccc(NC(=O)C(=O)Cc2nc3ccccc3[nH]c2=O)c1C	> 100 µM

Test system: NCI-H23 lung
Experiment: NCI anticancer screen, dose series, 48 h

SMILES	TGI
NC1=NN(c2ccccc2)C(=O)C1C(=O)CCC(=O)Nc1cccc(C(F)(F)F)c1 (stereo unspecified)	> 100 µM
CC1=C2C(=O)O[C@@H](c3ccoc3)[C@]2(C)CCC1	> 100 µM
CC1=C(C)CC2(CCCCC2=O)S(=O)C1 (stereo unspecified)	> 100 µM
COC(=O)C1=NC(=S)NC(c2ccccc2)C1c1nc2ccccc2s1 (stereo unspecified)	> 100 µM
Cc1noc(C)c1CCCOC1COc2ccccc2OCCOCCOc2ccccc2OC1	> 100 µM
CCN(CC)C(=O)c1cc(OC(C)C)ccc1-c1c(C)cc(OC(C)C)c(OC)c1OC	> 100 µM
Cc1cccc(NC(=O)C(=O)Cc2nc3ccccc3[nH]c2=O)c1C	> 100 µM
C=CCCCCCCCCC(=O)NS(=O)(=O)c1ccccc1	> 100 µM

Test system: HT29 colon
Experiment: NCI anticancer screen, dose series, 48 h

SMILES	TGI
NC1=NN(c2ccccc2)C(=O)C1C(=O)CCC(=O)Nc1cccc(C(F)(F)F)c1 (stereo unspecified)	> 100 µM
CC1=C2C(=O)O[C@@H](c3ccoc3)[C@]2(C)CCC1	> 100 µM
CC1=C(C)CC2(CCCCC2=O)S(=O)C1 (stereo unspecified)	> 100 µM
COC(=O)C1=NC(=S)NC(c2ccccc2)C1c1nc2ccccc2s1 (stereo unspecified)	> 100 µM
Cc1noc(C)c1CCCOC1COc2ccccc2OCCOCCOc2ccccc2OC1	> 100 µM
CCN(CC)C(=O)c1cc(OC(C)C)ccc1-c1c(C)cc(OC(C)C)c(OC)c1OC	> 100 µM
Cc1cccc(NC(=O)C(=O)Cc2nc3ccccc3[nH]c2=O)c1C	> 100 µM
C=CCCCCCCCCC(=O)NS(=O)(=O)c1ccccc1	> 100 µM

Test system: A549 NSCLC
Experiment: NCI anticancer screen, dose series, 48 h

SMILES	TGI
NC1=NN(c2ccccc2)C(=O)C1C(=O)CCC(=O)Nc1cccc(C(F)(F)F)c1 (stereo unspecified)	> 100 µM
CC1=C2C(=O)O[C@@H](c3ccoc3)[C@]2(C)CCC1	> 100 µM
CC1=C(C)CC2(CCCCC2=O)S(=O)C1 (stereo unspecified)	> 100 µM
COC(=O)C1=NC(=S)NC(c2ccccc2)C1c1nc2ccccc2s1 (stereo unspecified)	> 100 µM
Cc1noc(C)c1CCCOC1COc2ccccc2OCCOCCOc2ccccc2OC1	> 100 µM
CCN(CC)C(=O)c1cc(OC(C)C)ccc1-c1c(C)cc(OC(C)C)c(OC)c1OC	> 100 µM
Cc1cccc(NC(=O)C(=O)Cc2nc3ccccc3[nH]c2=O)c1C	> 100 µM
C=CCCCCCCCCC(=O)NS(=O)(=O)c1ccccc1	> 100 µM

Test system: SW-620 colon
Experiment: NCI anticancer screen, dose series, 48 h

SMILES	TGI
NC1=NN(c2ccccc2)C(=O)C1C(=O)CCC(=O)Nc1cccc(C(F)(F)F)c1 (stereo unspecified)	> 100 µM
CC1=C2C(=O)O[C@@H](c3ccoc3)[C@]2(C)CCC1	> 100 µM
CC1=C(C)CC2(CCCCC2=O)S(=O)C1 (stereo unspecified)	> 100 µM
COC(=O)C1=NC(=S)NC(c2ccccc2)C1c1nc2ccccc2s1 (stereo unspecified)	> 100 µM
Cc1noc(C)c1CCCOC1COc2ccccc2OCCOCCOc2ccccc2OC1	> 100 µM
CCN(CC)C(=O)c1cc(OC(C)C)ccc1-c1c(C)cc(OC(C)C)c(OC)c1OC	> 100 µM
Cc1cccc(NC(=O)C(=O)Cc2nc3ccccc3[nH]c2=O)c1C	> 100 µM
C=CCCCCCCCCC(=O)NS(=O)(=O)c1ccccc1	> 100 µM

Test system: M14 melanoma
Experiment: NCI anticancer screen, dose series, 48 h

SMILES	TGI
NC1=NN(c2ccccc2)C(=O)C1C(=O)CCC(=O)Nc1cccc(C(F)(F)F)c1 (stereo unspecified)	> 100 µM
CC1=C2C(=O)O[C@@H](c3ccoc3)[C@]2(C)CCC1	> 100 µM
CC1=C(C)CC2(CCCCC2=O)S(=O)C1 (stereo unspecified)	> 100 µM
COC(=O)C1=NC(=S)NC(c2ccccc2)C1c1nc2ccccc2s1 (stereo unspecified)	> 100 µM
Cc1noc(C)c1CCCOC1COc2ccccc2OCCOCCOc2ccccc2OC1	> 100 µM
CCN(CC)C(=O)c1cc(OC(C)C)ccc1-c1c(C)cc(OC(C)C)c(OC)c1OC	> 100 µM
Cc1cccc(NC(=O)C(=O)Cc2nc3ccccc3[nH]c2=O)c1C	> 100 µM
C=CCCCCCCCCC(=O)NS(=O)(=O)c1ccccc1	> 100 µM

Test system: HOP-18 NSCLC
Experiment: NCI anticancer screen, dose series, 48 h

SMILES	TGI
NC1=NN(c2ccccc2)C(=O)C1C(=O)CCC(=O)Nc1cccc(C(F)(F)F)c1 (stereo unspecified)	> 100 µM
CC1=C2C(=O)O[C@@H](c3ccoc3)[C@]2(C)CCC1	> 100 µM
CC1=C(C)CC2(CCCCC2=O)S(=O)C1 (stereo unspecified)	> 100 µM
COC(=O)C1=NC(=S)NC(c2ccccc2)C1c1nc2ccccc2s1 (stereo unspecified)	> 100 µM
Cc1noc(C)c1CCCOC1COc2ccccc2OCCOCCOc2ccccc2OC1	> 100 µM
Cc1cccc(NC(=O)C(=O)Cc2nc3ccccc3[nH]c2=O)c1C	> 100 µM
C=CCCCCCCCCC(=O)NS(=O)(=O)c1ccccc1	> 100 µM

Test system: HCT-15 colon
Experiment: NCI anticancer screen, dose series, 48 h

SMILES	TGI
NC1=NN(c2ccccc2)C(=O)C1C(=O)CCC(=O)Nc1cccc(C(F)(F)F)c1 (stereo unspecified)	> 100 µM
CC1=C2C(=O)O[C@@H](c3ccoc3)[C@]2(C)CCC1	> 100 µM
CC1=C(C)CC2(CCCCC2=O)S(=O)C1 (stereo unspecified)	> 100 µM
COC(=O)C1=NC(=S)NC(c2ccccc2)C1c1nc2ccccc2s1 (stereo unspecified)	> 100 µM
Cc1noc(C)c1CCCOC1COc2ccccc2OCCOCCOc2ccccc2OC1	> 100 µM
